Experimental data published in US12486227B2, “Small molecules for cancer therapy that reduce the expression of transcription factors KLF5 and EGR-1” (University of Florida Research Foundation, Incorporated, priority 2019, dated 2025).
Where two headings read alike, the source gives them in different places.

What was measured:
[1] = system: HCT-116 colorectal cancer cell line; assay: MTT growth assay, HCT-116; assay type: cell-based; conditions: Homo sapiens, Table 1
Excerpt: (§1) The observed activity is greater than that previously seen for ML264.

[2] = system: EGR-1; assay: Western blot of EGR-1 protein levels in DLD-1 cells; assay type: cell-based, human; conditions: 1 μM and 10 μM, 24 h
Experimental: We have studied the effects of SR18662 upon lowering KLF5 levels in colon cancer cell lines. […] The levels of the protein EGR-1 are lowered as well. In this experiment the test compounds were at 1 μM and 10 μM, and protein levels were measured after 24 h. […] The study was also repeated using HCT-116 cells rather than DLD-1 cells, with similar results. These compounds appear to dose-dependently reduce levels of KLF5 and EGR-1 proteins.
(§2) Western blot analysis. Total protein was extracted from cells with Laemmli buffer and the analysis was performed as described previously (24).

[3] = Oral bioavailability in mice; assay type: in vivo
[4] = system: SW-620 colorectal cancer cell line; assay: MTT growth assay, SW-620; assay type: cell-based; conditions: Homo sapiens, Table 1
Excerpt: as §1

[5] = system: human KLF5 promoter; assay: KLF5 promoter activity luciferase assay in DLD-1/pGL4.18hKLF5p cells; assay type: cell-based; conditions: Homo sapiens, DLD-1
Experimental: To examine the impact of these compounds on viability of CRC cell lines, we performed cell proliferation and cell growth assays using DLD-1 and HCT116 CRC cells. […] KLF5 promoter activity assay. DLD-1/pGL4.18hKLF5p cells were seeded in 96 well plate format and treated with DMSO or with test compounds dissolved in DMSO in the range of 0.001 to 20 μM final concentration for 24 h and the human KLF5 promoter activity was determined with the ONE-Glo luciferase assay system (Promega) using a SpectramMax M3 (Molecular Devices) plate reader. The IC50 values were calculated using GraphPad Prism version 5.00 for Windows (GraphPad Software) (22).

[6] = system: DLD-1, HCT-116, HT-29, and SW-620 colorectal cancer cell lines; assay: MTT assays for blocking growth of colorectal cancer cell lines (range over four lines); assay type: cell-based; conditions: Homo sapiens; DLD-1, HCT-116, HT-29, SW-620
Excerpt: as §1

[7] = system: DLD-1 and HCT116 CRC cells; assay: Cell cycle analysis by flow cytometry (propidium iodide); assay type: cell-based, human; conditions: 10 μM, over three days, vs vehicle, ML264, SR15006
Experimental: SR18662 alters the cell cycle pattern of CRCs. […] We have also evaluated the impact of SR15006 and SR18662 on cell cycle progression. We treated DLD-1 and HCT116 CRC cells over the course of three days with vehicle or 1 μM or 10 μM of test compound and then analyzed cell cycle using flow cytometry.
Cell proliferation, cell cycle and apoptosis assays. For cell proliferation experiments, cell cycle, and apoptosis determination, DLD-1 and HCT116 cells were treated with 1 or 10 μM of each compound or with vehicle (DMSO). The cells were collected at 24, 48, and 72 h post-treatment and analyzed as previously described (24). Each experiment was performed in triplicate.

[8] = system: DLD-1-derived xenografts; assay: Histology, immunofluorescence and immunohistochemistry of DLD-1-derived xenografts; assay type: in vivo, mouse
Experimental: SR18862 inhibits the growth of CRC xenografts in vivo. To evaluate SRI8662 in an in vivo model we used CRC cells for a mouse xenograft study. As described in more detail in the Examples section, nude mice were injected with DLD-1 CRC cells. Tumors were allowed to grow to an approximate size of 100 mm^3, and then mice were injected with vehicle or with varied concentrations of SR18662, given once a day or twice a day for five days, followed by two days without injection, and then followed by five days with injections. The experiment was completed the day after the last injection. […] Significant differences in tumor size are apparent at the end of the treatment schedule (FIG. 6B). To further characterize the impact of SR18662 on the features of isolated tumors, we compared vehicle-treated mice with mice that had been treated with SR18662 twice a day. […] Because SR18662 had induced cell apoptosis and death in the in vitro setting, we stained the xenografts with PanCK and TUNEL to estimate the levels of apoptosis in the in vivo context.
Immunofluorescence and immunohistochemistry. Tumors dissected from mice were first fixed in Bouin's fixative (50% ethanol+5% acetic acid in water) for 1 h, then fixed overnight in 10% buffered formalin (Fisher Scientific). The tissues were then paraffin-embedded using an automated processor, sectioned at 5 μm, collected onto charged slides and baked in a 65° C. oven overnight, and were subsequently deparaffinized in xylene. […]
Tissue sections were first incubated with blocking buffer (5% BSA in TBS-Tween) for 30 min at 37° C. and then with primary antibody at 4° C. overnight in a humidified chamber with gentle shaking. […] Slides were analyzed under a Nikon Eclipse 90i microscope (Nikon) and representative photomicrographs were taken. […]

[9] = system: HT-29 colorectal cancer cell line; assay: MTT growth assay, HT-29; assay type: cell-based; conditions: Homo sapiens, Table 1
Excerpt: as §1

[10] = system: Cyclin D1, E, A2, and B1; assay: Western blot of cyclin levels; assay type: cell-based, human; conditions: DLD-1 and HCT116, 1 μM or 10 μM, 72 h
Excerpt: Cyclins and their appropriate cyclin-dependent kinases form a regulatory network that allow cells to progress through the cell cycle (39, 40). […] SR15006, or SR18662, as compared to vehicle-treated cells. Thus, we investigated if these changes are accompanied by differences in the expression levels of cyclins. We focused our attention on Cyclin D1, E, A2, and B1, as we have previously shown that ML264 has inhibitory effect on their levels (24). […] Additionally, in contrast to ML264 or SR15006, SR18862 induced apoptosis and cell death.
as §2

[11] = 25 mg/kg twice per day vs vehicle

- EC50 [1]: 22 nM
- oral bioavailability [3]: orally bioavailable
- EC50 [4]: 22 nM
- IC50 ([5]; 24 h treatment, FIG. 1B, read-out: IC50, human KLF5 promoter activity): 4.4 nM
- IC50 ([5]; Table 1, comparison of ML264 and SR18662, read-out: luciferase IC50): 4.4 nM
- EC50 ([5]; Table 2, read-out: Approximate potency (EC50 · mol/L) (luciferase)): 4.4 nM
- EC50 [6]: 1.74 nM
- EC50 [9]: 40 nM
Compound: CS(=O)(=O)N1CCN(C(=O)CNC(=O)/C=C/c2ccc(Cl)c(Cl)c2)CC1 [Example 9, (E)-3-(3,4-dichlorophenyl)-N-(2-(4-(methylsulfonyl)piperazin-1-yl)-2-oxoethyl)acrylamide]
- EGR-1 protein levels by Western blot [2]: lowered
- subG1 population [7]: significant increase in the number of cells within the subG1 population
- expression levels of KLF5 and EGR1 in xenografts ([8]; 25 mg/kg twice a day, immunohistochemistry): significantly decreased
- TUNEL staining in xenografts [8, 11]: increase of TUNEL staining
- fibrosis (PanCK/Vimentin stain) in xenografts [8, 11]: higher level of fibrosis
- levels of cyclins [10]: significant reduction in the levels of tested cyclins
